Key:
[1] = system: Mia-Paca-2 pancreatic cancer cells; experiment: WST-1 cell viability assay; format: cell-based; conditions: Mia-Paca-2 pancreatic cells
Protocol: (§1) Compound Compound 9A was tested for the ability to inhibit the proliferation of Mia-Paca-2 pancreatic cancer cells. Mia-Paca-2 and MDA-MB-231 cells were seeded into the wells of a 96 well tissue culture plate in complete medium (10% fetal calf serum) and incubated overnight at 37° C./5% CO2). The medium was exchanged for fresh medium containing varying concentrations of Compound 9A and the plate was incubated for 72 hours at 37° C./5% CO2. The viability of cells at the end of this incubation was assessed with the WST-1 reagent. To 10 ml of warm (37° C.) complete medium, 1 ml WST-1 reagent was added. The medium from the wells of the plate with the Mia-Paca-2 cells was removed and replaced with 100 μL of the WST-1 reagent in complete medium. The plate was incubated at 37 37° C./5% CO2. At timed intervals the absorbance at 450 nm was determined for each well in a UVNis plate reader. For each well the slope of the plot of the absorbance 450 nm vs time was determined. The readings were normalized to that of the wells for the untreated control and a dose-response curve was plotted. A fit to the data was made from a four parameter, variable slope program (GraphPad Prism) and the IC50 was determined.
(§2) The same procedures were also applied to the compounds Compound 7A, Compound 6A, and Compound 8A to test their inhibitory activities against RKO colon, Mia-Paca-2 pancreatic and BT-549 cancer cells.

[2] = system: RKO colon cells; experiment: WST-1 cell viability assay; format: cell-based
Protocol: as §1, §2

[3] = system: A-204; experiment: ONCOLINES Profiler proliferation; format: cell-based; conditions: Homo sapiens, A204; A-204, rhabdomyosarcoma
Source text: (§3) The compounds were profiled on an ONCOLINES™ Profiler (Netherlands Translational Research Center) assayed with 66 cancer cell lines to determine if they were capable of inhibiting the proliferation of these cancer cells.

[4] = system: A375; experiment: ONCOLINES Profiler proliferation; format: cell-based; conditions: Homo sapiens, A-375; A375, malignant melanoma
Source text: as §3

[5] = system: A388; experiment: ONCOLINES Profiler proliferation; format: cell-based; conditions: A388, epidermal carcinoma
Source text: as §3

[6] = system: AN3 CA; experiment: ONCOLINES Profiler proliferation; format: cell-based; conditions: Homo sapiens, endometrium adenocarcinoma
Source text: as §3

[7] = system: Daoy; experiment: ONCOLINES Profiler proliferation; format: cell-based; conditions: Homo sapiens, medulloblastoma
Source text: as §3

[8] = system: DoTc2 4510; experiment: ONCOLINES Profiler proliferation; format: cell-based; conditions: Homo sapiens; DoTc2 4510, cervix carcinoma
Source text: as §3

[9] = system: HCT-116; experiment: ONCOLINES Profiler proliferation; format: cell-based; conditions: Homo sapiens; HCT-116, colon carcinoma
Source text: as §3

[10] = system: Jurkat E6.1; experiment: ONCOLINES Profiler proliferation; format: cell-based; conditions: Homo sapiens; Jurkat E6.1, T cell leukemia
Source text: as §3

[11] = system: K-562; experiment: ONCOLINES Profiler proliferation; format: cell-based; conditions: Homo sapiens, K562; K-562, CML
Source text: as §3

[12] = system: MIA PaCa-2; experiment: ONCOLINES Profiler proliferation; format: cell-based; conditions: Homo sapiens; MIA PaCa-2, pancreatic ductal carcinoma
Source text: as §3

[13] = system: NCI-H460; experiment: ONCOLINES Profiler proliferation; format: cell-based; conditions: Homo sapiens; NCI-H460, large cell lung carcinoma
Source text: as §3

[14] = system: OVCAR-3; experiment: ONCOLINES Profiler proliferation; format: cell-based; conditions: Homo sapiens; OVCAR-3, ovary adenocarcinoma
Source text: as §3

[15] = system: PA-1; experiment: ONCOLINES Profiler proliferation; format: cell-based; conditions: Homo sapiens; PA-1, ovary teratocarcinoma
Source text: as §3

[16] = system: SK-N-AS; experiment: ONCOLINES Profiler proliferation; format: cell-based; conditions: Homo sapiens, neuroblastoma
Source text: as §3

[17] = system: SR; experiment: ONCOLINES Profiler proliferation; format: cell-based; conditions: Homo sapiens, large cell immunoblastic lymphoma
Source text: as §3

[18] = system: SUP-T1; experiment: ONCOLINES Profiler proliferation; format: cell-based; conditions: Homo sapiens; SUP-T1, T-cell lymphoblastic lymphoma
Source text: as §3

[19] = system: VA-ES-BJ; experiment: ONCOLINES Profiler proliferation; format: cell-based; conditions: epithelioid carcinoma, bone
Source text: as §3

[20] = system: malignant melanoma cell line MWo; experiment: ONCOLINES Profiler proliferation; format: cell-based
Source text: as §3

[21] = system: erbB2; experiment: Western blot of erbB2 in SK-BR3 cells; format: cell-based, human; conditions: 72-hour treatment, 10 μm
Protocol: Another substrate of USP9X is the receptor tyrosine kinase erbB2. […] The breast cancer cell line SK-BR3 expresses high levels of erbB2. This cell line was treated with Compound 7A and the effects on cell viability as well as expression levels of erbB2 were examined.
Compound 7A inhibited the viability of SK-BR3. The levels of erbB2 were determined by Western blot and found to decrease in parallel with the decline in cell viability. After 72-hour treatment of 10 μm Compound 7A, the level of erbB2 declined to about zero. The loss of erbB2 from the plasma membrane was also confirmed by flow cytometry.

[22] = system: Mcl-1; experiment: Capture ELISA of Mcl-1 and ubiquitylated Mcl-1 in MIA-PaCa-2 cells; format: cell-based, human; conditions: 24 hours
Protocol: MIA-PaCa-2 cells were treated with Compound 7A at 25 μM, 12.5 μM, 6.25 μM, and 3.125 μM, respectively, for 24 hours. Capture ELISA of Mcl-1 was performed using a dilution series of MIA-PaCa-2 cell lysates equalized for total protein in a 96-well plate coated with sheep anti-human Mcl-1 (R&D Systems, #AF8281). Detection of Mcl-1 was performed using biotinylated sheep anti-human Mcl-1 followed by streptavidin-horseradish peroxidase and TMB development. For detection of ubiquitylated Mcl-1 the same capture conditions were used but employing a biotinylated mouse anti-human ubiquitin antibody (R&D Systems, #MAB701), again detecting with streptavidin-horseradish peroxidase and TMB development. Lysate samples were run in triplicate and percentages were calculated based on the signal generated from cell lysates with no compound added (vehicle control samples). […] With 12.5 μM Compound 7A, Mcl-1 declined by about 25.0% whereas ubiquitylated Mcl-1 increased by about 14.0%.

[23] = system: PD-L1; experiment: Western blot of PD-L1 in MIA PaCa-2 cells; format: cell-based; conditions: 24 hours
Protocol: MIA PaCa-2 cells expressing detectable levels of PD-L1 are treated with Compound 7A at various concentrations for 24 hours, and the ensuing level of PD-L1 are determined by Western blot to decrease by about 50% after the treatment.

## CN1CCOc2ccc(cc2)C(=O)NCc2ccc(F)c(c2)C(=O)N[C@@H](CC(C)(C)C)C(=O)Nc2ccc(cc2)CCN(C)C(=O)CC(C)(C)CC1=O [Compound 7A]
[1]
  cell viability: significant decreases
[2]
  cell viability: significant decreases
[3]
  IC50: 1.36 µM
[4]
  IC50: 2.02 µM
[5]
  IC50: 2.39 µM
[6]
  IC50: 0.66 µM
[7]
  IC50: 3.38 µM
[8]
  IC50: 0.963 µM
[9]
  IC50: 2.39 µM
[10]
  IC50: 0.548 µM
[11]
  IC50: 0.486 µM
[12]
  IC50: 0.79 µM
[13]
  IC50: 2.09 µM
[14]
  IC50: 2.4 µM
[15]
  IC50: 2.07 µM
[16]
  IC50: 1.72 µM
[17]
  IC50: 1.58 µM
[18]
  IC50: 4.29 µM
[19]
  IC50: 0.682 µM
[20]
  IC50: > 32 µM
[21]
  level of erbB2 declined to: about zero
[22]; 12.5 μM
  Mcl-1 decline: about 25.0%
  ubiquitylated Mcl-1 increase: about 14.0%
[22]; 25 μM
  Mcl-1 decline: about 23.0%
  ubiquitylated Mcl-1 increase: about 27.5%
[23]
  decrease of level of PD-L1: about 50%

Reference: patent US20240294467A1, “USP9X Inhibitors” (ProDeg, LLC, priority 2021, published 2024)
